Test results from PubChem BioAssay (NCI).
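In this assay, cells in 96-well plates receive the compound at five concentrations for 48 hours. Endpoints are linearly interpolated between the surrounding concentrations. Abbreviation: GI50, concentration required for 50% inhibition of growth. The concentration for full growth arrest is given as TGI.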

Columns and labels:
Assay in all cases: NCI anticancer screen, dose series, 48 h
[1] = tested on: SF-295 CNS
[2] = tested on: U251 CNS
[3] = tested on: SK-MEL-5 melanoma
[4] = tested on: UACC-257 melanoma
[5] = tested on: MALME-3M melanoma
[6] = tested on: BT-549 breast
[7] = tested on: SN12C renal
[8] = tested on: OVCAR-3 ovarian
[9] = tested on: NCI-H522 lung
[10] = tested on: HCT-15 colon
[11] = tested on: MOLT-4 leukemia
[12] = tested on: OVCAR-8 ovarian
[13] = tested on: RXF 393 renal
[14] = tested on: HS 578T breast
[15] = tested on: CCRF-CEM leukemia
[16] = tested on: LOX IMVI melanoma
[17] = tested on: HCC-2998 colon
[18] = tested on: NCI-H226 lung
[19] = tested on: MDA-MB-435
[20] = tested on: OVCAR-4 ovarian
[21] = tested on: UACC-62 melanoma
[22] = tested on: A498 renal
[23] = tested on: IGROV1 ovarian
[24] = tested on: NCI-H23 lung
[25] = tested on: T-47D breast
[26] = tested on: HT29 colon
[27] = tested on: HCT-116 colon
[28] = tested on: EKVX NSCLC
[29] = tested on: DU-145 prostate
[30] = tested on: SW-620 colon
[31] = tested on: TK-10 renal
[32] = tested on: NCI/ADR-RES ovarian
[33] = tested on: NCI-H460 lung
[34] = tested on: HOP-62 NSCLC
[35] = tested on: SNB-19 CNS
[36] = tested on: MDA-MB-468 breast
[37] = tested on: 786-0 renal
[38] = tested on: SK-MEL-28 melanoma
[39] = tested on: SK-OV-3 ovarian
[40] = tested on: RPMI-8226 leukemia
[41] = tested on: M14 melanoma
[42] = tested on: HL-60(TB) leukemia
[43] = tested on: SF-539 CNS
[44] = tested on: PC-3 prostate
[45] = tested on: MCF7 breast
[46] = tested on: COLO 205 colon
[47] = tested on: K-562 leukemia
[48] = tested on: ACHN renal
[49] = tested on: HOP-92 NSCLC
[50] = tested on: SF-268 CNS
[51] = tested on: A549 NSCLC
[52] = tested on: OVCAR-5 ovarian
[53] = tested on: SR leukemia
[54] = tested on: CAKI-1 renal
[55] = tested on: KM12 colon

Compound: O=C1Nc2ccc(Cl)cc2/C1=C/c1cccc(OCc2ccccn2)c1
- GI50 [1]: 15.5 µM
- TGI [1]: 29.1 µM
- GI50 [2]: 14.6 µM
- TGI [2]: 28.9 µM
- GI50 [3]: 17 µM
- TGI [3]: 30.7 µM
- GI50 [4]: 15.2 µM
- TGI [4]: 28.7 µM
- GI50 [5]: 15.4 µM
- TGI [5]: 29 µM
- GI50 [6]: 14.1 µM
- TGI [6]: 27.7 µM
- GI50 [7]: 15.3 µM
- TGI [7]: 28.9 µM
- GI50 [8]: 16.1 µM
- TGI [8]: 30.1 µM
- GI50 [9]: 14.6 µM
- TGI [9]: 29.9 µM
- GI50 [10]: 13.7 µM
- TGI [10]: 30.3 µM
- GI50 [11]: 12.4 µM
- TGI [11]: 36.8 µM
- GI50 [12]: 15.4 µM
- TGI [12]: 30.3 µM
- GI50 [13]: 11.9 µM
- TGI [13]: 24.5 µM
- GI50 [14]: 17.7 µM
- TGI [14]: 45.7 µM
- GI50 [15]: 30.6 µM
- TGI [15]: > 100 µM
- GI50 [16]: 13.3 µM
- TGI [16]: 28.2 µM
- GI50 [17]: 17.8 µM
- TGI [17]: 31.9 µM
- GI50 [18]: 16.3 µM
- TGI [18]: 38.5 µM
- GI50 [19]: 18.4 µM
- TGI [19]: 36 µM
- GI50 [20]: 18.3 µM
- TGI [20]: 54.1 µM
- GI50 [21]: 11.9 µM
- TGI [21]: 24.4 µM
- GI50 [22]: 18.2 µM
- TGI [22]: 32.7 µM
- GI50 [23]: 15.7 µM
- TGI [23]: 31.2 µM
- GI50 [24]: 14.5 µM
- TGI [24]: 28.1 µM
- GI50 [25]: 13.4 µM
- TGI [25]: 30.6 µM
- GI50 [26]: 17.4 µM
- TGI [26]: 32.8 µM
- GI50 [27]: 13 µM
- TGI [27]: 27.2 µM
- GI50 [28]: 8.43 µM
- TGI [28]: 21.1 µM
- GI50 [29]: 17.8 µM
- TGI [29]: 31.8 µM
- GI50 [30]: 17.5 µM
- TGI [30]: 34.3 µM
- GI50 [31]: 18.7 µM
- TGI [31]: 33.5 µM
- GI50 [32]: 14.2 µM
- TGI [32]: 34 µM
- GI50 [33]: 18 µM
- TGI [33]: 34.5 µM
- GI50 [34]: 15.8 µM
- TGI [34]: 31.3 µM
- GI50 [35]: 15.7 µM
- TGI [35]: 29.3 µM
- GI50 [36]: 11.9 µM
- TGI [36]: 25.5 µM
- GI50 [37]: 16.4 µM
- TGI [37]: 31.1 µM
- GI50 [38]: 16.8 µM
- TGI [38]: 30.5 µM
- GI50 [39]: 20.2 µM
- TGI [39]: 47 µM
- GI50 [40]: 20 µM
- TGI [40]: > 100 µM
- GI50 [41]: 16.3 µM
- TGI [41]: 31.2 µM
- GI50 [42]: 19.2 µM
- TGI [42]: 52.5 µM
- GI50 [43]: 16 µM
- TGI [43]: 29.5 µM
- GI50 [44]: 19.4 µM
- TGI [44]: 64.4 µM
- GI50 [45]: 7.15 µM
- TGI [45]: 20.7 µM
- GI50 [46]: 17.5 µM
- TGI [46]: 33 µM
- GI50 [47]: 19 µM
- TGI [47]: > 100 µM
- GI50 [48]: 15 µM
- TGI [48]: 30 µM
- GI50 [49]: 14.7 µM
- TGI [49]: 46.2 µM
- GI50 [50]: 17.6 µM
- TGI [50]: 38.9 µM
- GI50 [51]: 17.8 µM
- TGI [51]: 38.2 µM
- GI50 [52]: 15.9 µM
- TGI [52]: 30.4 µM
- GI50 [53]: 13 µM
- TGI [53]: 41.9 µM
- GI50 [54]: 15.3 µM
- TGI [54]: 32 µM
- GI50 [55]: 18.1 µM
- TGI [55]: 33.8 µM
